Results from the supplement of paper PMC5908809.

Columns and labels:
[1] = system: normal primary NK cells, pool 2 (3 donors) (IL-2 2.5 ng/mL); assay: percent inhibition of viability; higher = more inhibition; conditions: 72 h
IMC-1 (IL-2 20 ng/mL) [2] = assay: as above; conditions: 72 h
NK-92 (IL-2 2.5 ng/mL) [3] = assay: as above; conditions: 72 h
NK-YS (IL-2 2.5 ng/mL) [4] = assay: as above; conditions: 72 h
NKL (IL-2 2.5 ng/mL) [5] = assay: as above; conditions: 72 h
KAI3 (IL-2 2.5 ng/mL) [6] = assay: as above; conditions: 72 h
[7] = system: normal primary NK cells, pool 1 (3 donors), resting (IL-2 0 ng/mL); assay: as above; conditions: 72 h
[8] = system: normal primary NK cells, pool 3 (3 donors) (IL-2 2.5 ng/mL); assay: as above; conditions: 72 h
DERL-7 (IL-2 2.5 ng/mL) [9] = assay: as above; conditions: 72 h
YT (IL-2 2.5 ng/mL) [10] = assay: as above; conditions: 72 h
KHYG-1 (IL-2 2.5 ng/mL) [11] = assay: as above; conditions: 72 h
SNK-6 (IL-2 2.5 ng/mL) [12] = assay: as above; conditions: 72 h
[13] = system: normal primary NK cells, pool 1 (3 donors) (IL-2 2.5 ng/mL); assay: as above; conditions: 72 h
[14] = system: normal NK cells expanded with K562-aAPC; assay: drug sensitivity score (DSS) (DSS units); higher = more sensitive; extreme values may be limits of the assay; conditions: 72 h; IL-2 2.5 ng/mL
Method: (§1)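 Drug sensitivity and resistance testing on K562-aAPC-expanded normal NK cells: 5 concentrations (10-fold steps over a 10,000-fold range), 72 h at 37 °C, viability by CellTiter-Glo normalised to DMSO and benzethonium chloride controls; DSS from the fitted curve.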

[15] = system: normal primary NK cells, pool 2 (3 donors) (IL-2 2.5 ng/mL); assay: as above; conditions: 72 h
IMC-1 (IL-2 20 ng/mL) [16] = assay: as above; conditions: 72 h
NK-92 (IL-2 2.5 ng/mL) [17] = assay: as above; conditions: 72 h
NK-YS (IL-2 2.5 ng/mL) [18] = assay: as above; conditions: 72 h
NKL (IL-2 2.5 ng/mL) [19] = assay: as above; conditions: 72 h
KAI3 (IL-2 2.5 ng/mL) [20] = assay: as above; conditions: 72 h
[21] = system: normal primary NK cells, pool 1 (3 donors), resting (IL-2 0 ng/mL); assay: as above; conditions: 72 h
[22] = system: normal primary NK cells, pool 3 (3 donors) (IL-2 2.5 ng/mL); assay: as above; conditions: 72 h
DERL-7 (IL-2 2.5 ng/mL) [23] = assay: as above; conditions: 72 h
YT (IL-2 2.5 ng/mL) [24] = assay: as above; conditions: 72 h
KHYG-1 (IL-2 2.5 ng/mL) [25] = assay: as above; conditions: 72 h
SNK-6 (IL-2 2.5 ng/mL) [26] = assay: as above; conditions: 72 h
[27] = system: normal primary NK cells, pool 1 (3 donors) (IL-2 2.5 ng/mL); assay: as above; conditions: 72 h
[28] = system: normal NK cells expanded with K562-aAPC; assay: percent inhibition of viability; higher = more inhibition; conditions: 72 h, IL-2 2.5 ng/mL
Method: as §1

Oc1ccc2c(c1)CC[C@H](c1ccccc1)[C@@H]2c1ccc(OCCN2CCCC2)cc1 [Lasofoxifene] (max concentration tested 1000 nM)
percent inhibition of viability [%]
Conditions | 0.1 nM | 1 nM | 10 nM | 100 nM | 1000 nM
DERL-7 (IL-2 2.5 ng/mL) [9] | -2.25 | -2.91 | -6 | -9.21 | 0.79
IMC-1 (IL-2 20 ng/mL) [2] | 0.35 | 0.07 | 4.03 | 6.29 | 19.9
KAI3 (IL-2 2.5 ng/mL) [6] | -1.79 | -1.38 | 0 | -0.11 | 15.5
KHYG-1 (IL-2 2.5 ng/mL) [11] | -2.09 | -2.31 | 1.74 | 5.02 | 8.46
NK-92 (IL-2 2.5 ng/mL) [3] | 6.27 | 1.85 | 5.66 | -5.53 | 1.52
NK-YS (IL-2 2.5 ng/mL) [4] | 1.84 | -2.69 | 2.36 | -0.77 | 10.5
NKL (IL-2 2.5 ng/mL) [5] | -11.5 | -1.59 | -8.69 | -4.01 | -9.81
SNK-6 (IL-2 2.5 ng/mL) [12] | 4.04 | 34.2 | 14.3 | 17.7 | -1.3
YT (IL-2 2.5 ng/mL) [10] | 2.75 | 2.01 | 2.57 | -4.31 | 1.17
[1] | -15.6 | -6.78 | -5.24 | -11.7 | -1.2
[7] | 7.2 | -0.67 | 3.19 | -7 | 6.03
[8] | -15.8 | -8.59 | -8.05 | -11 | -1.01
[13] | -0.49 | -5.39 | 5.47 | -10.7 | 0.81
[28] | -6.28 | -2.87 | -0.97 | 5.89 | 14.2

Conditions | drug sensitivity score
DERL-7 (IL-2 2.5 ng/mL) [23] | 0
IMC-1 (IL-2 20 ng/mL) [16] | 0.95
KAI3 (IL-2 2.5 ng/mL) [20] | 0.26
KHYG-1 (IL-2 2.5 ng/mL) [25] | 0
NK-92 (IL-2 2.5 ng/mL) [17] | 0
NK-YS (IL-2 2.5 ng/mL) [18] | 0
NKL (IL-2 2.5 ng/mL) [19] | 0
SNK-6 (IL-2 2.5 ng/mL) [26] | 0
YT (IL-2 2.5 ng/mL) [24] | 0
[14] | 0.59
[15] | 0
[21] | 0
[22] | 0
[27] | 0

COc1cccc2c1C(=O)c1c(O)c3c(c(O)c1C2=O)C[C@@](O)(C(=O)CO)C[C@@H]3O[C@H]1C[C@H](N)[C@H](O)[C@H](C)O1 [Doxorubicin] (max concentration tested 1000 nM)
percent inhibition of viability [%]
Conditions | 0.1 nM | 1 nM | 10 nM | 100 nM | 1000 nM
DERL-7 (IL-2 2.5 ng/mL) [9] | -0.26 | -4.85 | 13.4 | 85.9 | 100
IMC-1 (IL-2 20 ng/mL) [2] | -7.6 | -2.62 | -0.06 | 88.2 | 99.8
KAI3 (IL-2 2.5 ng/mL) [6] | -17.1 | -0.05 | 19.4 | 74.9 | 89.1
KHYG-1 (IL-2 2.5 ng/mL) [11] | -8.45 | -6.72 | -0.27 | 79.3 | 98.3
NK-92 (IL-2 2.5 ng/mL) [3] | -8.55 | 11.3 | -2.45 | 64.2 | 96.6
NK-YS (IL-2 2.5 ng/mL) [4] | -8.43 | -6.33 | 14.6 | 83.5 | 95.3
NKL (IL-2 2.5 ng/mL) [5] | -17.6 | -0.29 | 89.2 | 102 | 97.3
SNK-6 (IL-2 2.5 ng/mL) [12] | 20 | 14.8 | 5.01 | 80.6 | 94.3
YT (IL-2 2.5 ng/mL) [10] | -4.73 | -5.55 | -0.81 | 69.3 | 97.2
[1] | -14 | -6.82 | -8.6 | 37.2 | 94.4
[7] | -18 | -16.6 | 1.78 | 70.1 | 92.1
[8] | -4.57 | -14.4 | -9.04 | 23.1 | 97.2
[13] | -9.2 | -4.36 | 4.47 | 40.8 | 96.5
[28] | -3.12 | -5.25 | -1.72 | 39.8 | 99.8

Conditions | drug sensitivity score
DERL-7 (IL-2 2.5 ng/mL) [23] | 17.4
IMC-1 (IL-2 20 ng/mL) [16] | 16
KAI3 (IL-2 2.5 ng/mL) [20] | 16.2
KHYG-1 (IL-2 2.5 ng/mL) [25] | 14.6
NK-92 (IL-2 2.5 ng/mL) [17] | 12.8
NK-YS (IL-2 2.5 ng/mL) [18] | 17.1
NKL (IL-2 2.5 ng/mL) [19] | 28.7
SNK-6 (IL-2 2.5 ng/mL) [26] | 15.5
YT (IL-2 2.5 ng/mL) [24] | 13.3
[14] | 10.8
[15] | 10.2
[21] | 13.3
[22] | 8.97
[27] | 10.3

FC(F)c1nc2ccccc2n1-c1nc(N2CCOCC2)nc(N2CCOCC2)n1 [ZSTK474] (max concentration tested 10000 nM)
percent inhibition of viability [%]
Conditions | 1 nM | 10 nM | 100 nM | 1000 nM | 10000 nM
DERL-7 (IL-2 2.5 ng/mL) [9] | 6 | 10.9 | 36.5 | 75.4 | 81.7
IMC-1 (IL-2 20 ng/mL) [2] | 0.84 | -3.67 | -9.08 | -31.5 | -20.7
KAI3 (IL-2 2.5 ng/mL) [6] | 4.91 | 1.34 | 14.2 | 43.2 | 55.8
KHYG-1 (IL-2 2.5 ng/mL) [11] | 1.03 | -2.51 | 5.44 | 17.9 | 48
NK-92 (IL-2 2.5 ng/mL) [3] | 1.13 | 13.1 | 45.6 | 48.8 | 57.2
NK-YS (IL-2 2.5 ng/mL) [4] | -6.13 | -3.67 | 5.5 | 36 | 57.2
NKL (IL-2 2.5 ng/mL) [5] | -4.7 | 3.86 | 6.05 | 54.5 | 69.3
SNK-6 (IL-2 2.5 ng/mL) [12] | 17.9 | -3.78 | -1.36 | 35.9 | 58.6
YT (IL-2 2.5 ng/mL) [10] | 3.19 | 3.41 | 11.6 | 42.3 | 50.5
[1] | -2.66 | -3.09 | 1.26 | 20 | 34.2
[7] | -19.3 | -14.1 | 10.2 | 27.2 | 41.5
[8] | -3.55 | -8.03 | -3.22 | 10.6 | 22
[13] | -2.64 | -1.27 | 20.4 | 31.6 | 32.4
[28] | -8.61 | 1.11 | 12.5 | 35.9 | 49.6

Conditions | drug sensitivity score
DERL-7 (IL-2 2.5 ng/mL) [23] | 18.4
IMC-1 (IL-2 20 ng/mL) [16] | 0
KAI3 (IL-2 2.5 ng/mL) [20] | 9.53
KHYG-1 (IL-2 2.5 ng/mL) [25] | 4.45
NK-92 (IL-2 2.5 ng/mL) [17] | 16.9
NK-YS (IL-2 2.5 ng/mL) [18] | 7.54
NKL (IL-2 2.5 ng/mL) [19] | 11
SNK-6 (IL-2 2.5 ng/mL) [26] | 7.51
YT (IL-2 2.5 ng/mL) [24] | 9
[14] | 7.86
[15] | 3.84
[21] | 5.69
[22] | 1.91
[27] | 7.96
